# pIC50: −log10 of the molar value.
# Key:
# [1] = system: HT29SN-38 cells; assay: Colony formation assay; type: cell-based, human; settings: 7 days
# Description: Cells were trypsinized and counted, and 400 cells/well were seeded in 24-well plates. Drug treatments were performed 24 h after seeding for a total duration of 6 (LoVo) or 7 (HT29) days. Next, media were removed, and cells were washed with PBS and stained with 250 μL Crystal Violet solution for 10 min. Crystal Violet was then removed, plates rinsed with tap water, images captured, and colonies counted using the ImageJ software (version 1.54p). Survival fraction and plating efficiency (PE) were calculated as follows: Survival Fraction=number of colonies/number of cells plated ∗ PE PE=number of colonies formed in control/number of cells seeded
# [2] = target: other members of the UGT family; assay: Inhibition of glucuronidation activity of other UGT family enzymes; type: biochemical; settings: Figure S3F
# [3] = target: T1, ABCG2 (Homo sapiens, UniProt Q9UNQ0); assay: Bidirectional transport of estrone-3-sulfate across Caco-2 cell monolayers; type: cell-based; settings: Caco-2 monolayers, 50 µM SCO-101
# T1 sequence (Q9UNQ0 1-655): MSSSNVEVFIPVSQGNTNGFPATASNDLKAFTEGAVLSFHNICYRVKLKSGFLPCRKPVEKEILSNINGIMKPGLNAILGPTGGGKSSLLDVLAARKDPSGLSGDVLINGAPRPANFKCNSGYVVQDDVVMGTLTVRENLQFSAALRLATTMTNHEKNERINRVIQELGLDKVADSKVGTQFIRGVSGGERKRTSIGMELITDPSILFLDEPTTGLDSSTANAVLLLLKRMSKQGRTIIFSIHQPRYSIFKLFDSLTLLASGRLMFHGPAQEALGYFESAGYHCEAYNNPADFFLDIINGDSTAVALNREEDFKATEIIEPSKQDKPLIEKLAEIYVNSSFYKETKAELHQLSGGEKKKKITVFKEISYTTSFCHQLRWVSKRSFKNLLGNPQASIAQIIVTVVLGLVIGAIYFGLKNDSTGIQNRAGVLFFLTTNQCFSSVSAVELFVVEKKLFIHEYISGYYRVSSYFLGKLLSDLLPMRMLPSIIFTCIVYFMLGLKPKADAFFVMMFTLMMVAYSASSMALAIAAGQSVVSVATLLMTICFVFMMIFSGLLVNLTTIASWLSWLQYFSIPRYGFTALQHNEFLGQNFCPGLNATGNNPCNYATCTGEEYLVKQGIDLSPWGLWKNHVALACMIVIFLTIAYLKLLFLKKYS
# Description: Bidirectional transport experiments (basolateral-to-apical and apical-to-basolateral) with the ABCG2 substrate estrone-3-sulfate and the MDR1/ABCB1 substrate digoxin were performed in Caco-2 cell monolayers as previously described.
# [4] = system: MKN45 cells; assay: Cell viability assay (CellTiter-Glo), MKN45; type: cell-based; settings: Homo sapiens, MKN-45, 96 h
# Description: (§1) Cells were seeded at a density of 0.2–1 × 10^4 cells/well into 96-well plates. One day after seeding, treatments were performed in triplicate for 72 h, or as otherwise indicated in the relevant panel/figure legend and kept at 37 °C/5% CO2. Growth medium alone (“untreated” cells) or DMSO was used as a control.
# (§2) For SCH, SNU-5, and MKN45 cells, 50 μL of CellTiter-Glo® Reagent (Promega; Madison, WI, USA) was added to each well at the end of the treatments. The content was mixed for 5 min to facilitate cell lysis and plates incubated at room temperature for 10 min to stabilize luminescent signals, which were then recorded using an EnVision Multi Label Reader (PerkinElmer; Waltham, MA, USA).
# (§3) Background values were subtracted prior to further analysis. The percentage of cell viability was expressed as relative values versus untreated cells as determined by the various assays. EC50/IC50 values were calculated using GraphPad Prism (v10.4.1) and the in-built non-linear regression [log (inhibitor) vs. response—variable slope (four parameters)] calculation. […] Synergy scores were calculated using the ZIP model, which takes the advantages of both the Loewe additivity and the Bliss independence models, aiming at a systematic assessment of various types of drug interaction patterns that may arise in a high-throughput drug combination screening.
# [5] = system: HT29PAR cells; assay: Cell viability assay (MTT / CCK-8), drug-sensitive HT29; type: cell-based, human; settings: Homo sapiens, HT-29, 72 h
# Description: as §1
# (§4) For MTT assays, media were replaced at the final timepoint with 100 μL of 1:10 MTT reagent (0.5 mg/mL in PBS) diluted in growth medium, and plates were incubated for 3 h. A total of 100 μL/well of stop buffer (50 g Sodium Dodecyl Sulfate, 245 mL ddH2O, 5 mL 1N HCl) was added and plates incubated for 24 h to let colored formazan crystals develop. Optical densities (ODs) were measured with a PowerWave^TM Microplate spectrophotometer (BioTek, Winooski, VT, USA) at 570 nm and 670 nm (background).
# For CCK-8 assays, 100 μL of 1:10 CCK-8 reagent (pevonedistat-treated HT29 cells) diluted in medium was added to each well and cells incubated for 1–2 h at 37 °C. OD values were measured at 450 nm with a VersaMax microplate spectrophotometer (Molecular Devices, San Jose, CA, USA).
# Background values were subtracted prior to further analysis. The percentage of cell viability was expressed as relative values versus untreated cells as determined by the various assays. EC50/IC50 values were calculated using GraphPad Prism (v10.4.1) and the in-built non-linear regression [log (inhibitor) vs. response—variable slope (four parameters)] calculation. For determination of synergy scores, the online tool SynergyFinder+ (https://synergyfinder.org access date 15 February 2025) was employed following 4 × 4- or 6 × 6-matrix dose-escalation cell viability experiments. Doses of drugs are indicated in the relevant figure legends and ranges have been chosen based on the response of cells to single-drug dose-dependent experiments. Synergy scores were calculated using the ZIP model, which takes the advantages of both the Loewe additivity and the Bliss independence models, aiming at a systematic assessment of various types of drug interaction patterns that may arise in a high-throughput drug combination screening.
# [6] = parameters: method as in earlier work; settings: oral SCO-101 in combination with FOLFIRI; cited from earlier work
# [7] = system: SCH cells; assay: Cell viability assay (CellTiter-Glo), SCH; type: cell-based; settings: 96 h
# Description: as §1, §2, §3
# [8] = system: PANC-1MX100 cells; assay: Cell viability assay, mitoxantrone-resistant PANC-1; type: cell-based, human; settings: SCO-101 20 µM, 72 h
# Description: as §1, §4
# Background values were subtracted prior to further analysis. The percentage of cell viability was expressed as relative values versus untreated cells as determined by the various assays. EC50/IC50 values were calculated using GraphPad Prism (v10.4.1) and the in-built non-linear regression [log (inhibitor) vs. response—variable slope (four parameters)] calculation. For determination of synergy scores, the online tool SynergyFinder+ (https://synergyfinder.org access date 15 February 2025) was employed following 4 × 4- or 6 × 6-matrix dose-escalation cell viability experiments. […]
smiles,measurement,setting,value
"O=C(Nc1cc(C(F)(F)F)cc(C(F)(F)F)c1)Nc1ccc(Br)cc1-c1nnn[nH]1 [SCO-101, N-[4-Bromo-2-(1H-1,2,3,4-tetrazol-5-yl)phenyl]-N′-[3,5-bis(trifluoromethyl)phenyl]urea]",colony formation ability (survival fraction),[1]; 10 µM SCO-101 alone,did not affect
same,"colony formation ability, SCO-101 in combination with SN-38","[1]; SCO-101 0–20 µM + SN-38 0.01 μM, vs SCO-101 alone",significant reduction
same,IC50 for other members of the UGT family compared with UGT1A1,[2],higher IC50 values
same,basolateral-to-apical transport of the ABCG2 substrate estrone-3-sulfate,[3],completely blocked
same,pIC50,[4],< 4.30
same,pIC50,[5],< 4.60
same,safety,[6],safe
same,pIC50,[7],< 4.30
same,"cell viability, SCO-101 combined with mitoxantrone or SN-38",[8],re-sensitized
